Entries after “also recorded” stand apart in the source; their conditions may differ.

In experiment [1] the test system is RTV-964 (patient sample 98-964). Description: Phenotypic susceptibility assay, RTV-964. Format: cell-based, HIV-1. To be noted: RTV-964, patient-derived pool. The procedure:
(§1) Transfections were performed using a calcium-phosphate precipitation procedure. […] Cell lysates were assayed for luciferase activity (FIG. 3).
(§2) The drug inhibition curves are shown in (FIG. 3).
A resistance test vector was constructed as described in Example 1 from a patient sample designated 98-964. […] Isolation of viral RNA and RT/PCR was used to generate a patient derived segment that comprised viral sequence coding for all of PR and aa 1-313 of RT. The PDS was inserted into an indicator gene viral vector to generate a resistance test vector designated RTV-964. RTV-964 was then tested in a phenotypic assay to determine accurately and quantitatively the level of susceptibility to a panel of anti-retroviral drugs. […] An IC50 was determined for the resistance test vector pool for each drug tested. The pattern of susceptibility to all of the drugs tested was examined and compared to known patterns of susceptibility.

Experiment [2] relates to RTV-209 (patient sample 97-209). Kind of experiment: Phenotypic susceptibility assay, RTV-209. The experiment is classed as cell-based, HIV-1. Particulars: RTV-209, patient-derived pool. The procedure:
as §1, §2
A resistance test vector was constructed as described in Example 1 from a patient sample designated 97-209. This patient had been previously treated with AZT, ddI, d4T and 3TC (NRTIs), indinavir (a PRIs) and adefovir. Isolation of viral RNA and RT/PCR was used to generate a patient derived segment that comprised viral sequences coding for all of PR and aa 1-313 of RT. The PDS was inserted into an indicator gene viral vector to generate resistance test vector designated RTV-209. RTV-209 was then tested in a phenotypic assay to determine accurately and quantitatively the level of susceptibility to a panel of anti-retroviral drugs. […] An IC50 was determined for the resistance test vector pool for each drug tested. […]. The pattern of susceptibility to all of the drugs tested was examined and compared to known patterns of susceptibility.

Experiment [3] concerns RTV-675 (patient sample 98-675). Description: Phenotypic susceptibility assay, RTV-675. Format: cell-based, HIV-1. Particulars: RTV-675, patient-derived pool. The procedure: as §1, §2
A resistance test vector was constructed as described in Example 1 from a patient sample designated 98-675. This patient had been previously treated with ddI, AZT, and 3TC (NRTIs), and saquinavir and nelfinavir (PRIs). Isolation of viral RNA and RT/PCR was used to generate a patient derived segment that comprised viral sequences coding for all of PR and aa 1-313 of RT. The PDS was inserted into an indicator gene viral vector to generate a resistance test vector designated RTV-675. RTV-675 was then tested in a phenotypic assay to determine accurately and quantitatively the level of susceptibility to a panel of anti-retroviral drugs. […] The pattern of susceptibility to all of the drugs tested was examined and compared to known patterns of susceptibility.

In experiment [4] the test system is RTV-1058 Clone 5 (L100I and K103N). Description: Phenotypic susceptibility assay, RTV-1058 clone 5. The experiment is classed as cell-based, HIV-1. How it is done: The resistance test vectors containing a functional luciferase gene cassette were constructed and host cells were transfected with the resistance test vector DNA. The resistant test vectors contained patient-derived reverse transcriptase and protease sequences that were either susceptible or resistant to the antiretroviral agents, such as nucleoside reverse transcriptase inhibitors, non-nucleoside reverse transcriptase inhibitors and protease inhibitors. […] The IC50 values were determined by plotting percent drug inhibition vs. log10 drug concentration.
(§3) Host cells were seeded in 10-cm-diameter dishes and were transfected several days after plating with resistance test vector plasmid DNA and the envelope expression vector. […] HIV capsid protein (p24) levels in the harvested cell culture media were determined by an EIA method as described by the manufacturer (SIAC; Frederick, Md.). […] The inhibitory effect of the drug was determined using the following equation: […]
A resistance test vector was constructed as described in Example 1 from a patient sample designated 98-1058. […] An IC50 was determined for the resistance test vector pool for each drug tested.

Experiment [5] has as its system RTV-268 (patient sample 97-268; P236L). Description: Phenotypic susceptibility assay, RTV-268. The experiment is classed as cell-based, HIV-1. Particulars: RTV-268 / patient 268. From the text: (§4) The resistance test vectors containing a functional luciferase gene cassette were constructed and host cells were transfected with the resistance test vector DNA. The resistant test vectors contained patient-derived reverse transcriptase and protease sequences that were either susceptible or resistant to the antiretroviral agents, such as nucleoside reverse transcriptase inhibitors, non-nucleoside reverse transcriptase inhibitors and protease inhibitors. The resistance test vector viral particles produced by transfecting the resistance test vector DNA into host cells, either in the presence or absence of protease inhibitors, were used to infect target host cells grown either in the absence of NRTI or NNRTI or in the presence of increasing concentrations of the drug. The amount of luciferase activity produced in infected target host cells in the presence of drug was compared to the amount of luciferase produced in infected target host cells in the absence of drug. Drug resistance was measured as the amount of drug required to inhibit by 50% the luciferase activity detected in the absence of drug (inhibitory concentration 50%, IC50). The IC50 values were determined by plotting percent drug inhibition vs. log10 drug concentration.
Host cells were seeded in 10-cm-diameter dishes and were transfected several days after plating with resistance test vector plasmid DNA and the envelope expression vector. Transfections were performed using a calcium-phosphate precipitation procedure. The cell culture media containing the DNA precipitate was replaced with fresh medium, from one to 24 hours, after transfection. Cell culture media containing resistance test vector viral particles was harvested one to four days after transfection and was passed through a […] filter before being stored at −80° C. HIV capsid protein (p24) levels in the harvested cell culture media were determined by an EIA method as described by the manufacturer (SIAC; Frederick, Md.). Before infection, target cells (293 and 293/T) were plated in cell culture media. Control infections were performed using cell culture media from mock transfections (no DNA) or transfections containing the resistance test vector plasmid DNA without the envelope expression plasmid. One to three or more days after infection the media was removed and cell lysis buffer (Promega) was added to each well. […] The inhibitory effect of the drug was determined using the following equation: […]
where RLUluc [drug] is the relative light unit of luciferase activity in infected cells in the presence of drug and RLUluc is the Relative Light Unit of luciferase activity in infected cells in the absence of drug. IC50 values were obtained from the sigmoidal curves that were generated from the data by plotting the percent inhibition of luciferase activity vs. the log10 drug concentration.
A resistance test vector was constructed as described in Example 1 from a patient sample designated 97-268. […] Isolation of viral RNA and RT/PCR was used to generate a patient derived segment that comprised viral sequences coding for all of PR and amino acids 1-313 of RT. The patient derived segment was inserted into a indicator gene viral vector to generate a resistance test vector designated RTV-268. RTV-268 was then tested using the phenotypic susceptibility assay to determine accurately and quantitatively the level of susceptibility to a panel of anti-retroviral drugs. […] An IC50 was determined for each drug tested. Susceptibility of the patient virus to each drug was examined and compared to the susceptibility of a reference virus. […] The sample was examined further for genotypic changes associated with the pattern of susceptibility.

The subject of experiment [6] is patient 487 virus (RT M184V, K103N). Description: Phenotypic susceptibility assay, patient 487. The experiment is classed as cell-based, HIV. Particulars: patient 487, FIG. 4.
Source text: as §4, with “The amount of luciferase activity produced in infected target host cells in the presence of drug was compared to the amount of luciferase produced in infected target host cells in the absence of drug. Drug resistance was measured as the amount of drug required to inhibit by 50% the luciferase activity detected in the absence of drug (inhibitory concentration 50%, IC50).” left out
as §3

Experiment [7] deals with patient 780 virus (RT K103N, P225H). Description: Phenotypic susceptibility assay, patient 780. The experiment is classed as cell-based, HIV. To be noted: patient 780, FIG. 8B.
Source text: as §4, with “The amount of luciferase activity produced in infected target host cells in the presence of drug was compared to the amount of luciferase produced in infected target host cells in the absence of drug. Drug resistance was measured as the amount of drug required to inhibit by 50% the luciferase activity detected in the absence of drug (inhibitory concentration 50%, IC50).” left out
as §3

Take `Cc1ccnc2c1NC(=O)c1cccnc1N2C1CC1` [nevirapine]: the results for the “fold decrease in susceptibility (IC50)” value in experiment [1], in experiment [2] and in experiment [3] were 750 fold, “greater than 800 fold” and 6 fold, respectively. Also, the “fold loss of susceptibility (IC50)” value in experiment [4] amounted to 120 fold. In experiment [5], the “susceptibility/resistance compared to reference virus” value is on record as “no change in nevirapine susceptibility; also recorded: nevirapine susceptibility was the same as wild type”. Also, the “susceptibility/resistance profile” value is listed as “increased resistance” in experiment [6] and “reduced susceptibility” in experiment [7].

On to `CC(C)Nc1cccnc1N1CCN(C(=O)c2cc3cc(NS(C)(=O)=O)ccc3[nH]2)CC1` [delavirdine], for which the “fold decrease in susceptibility (IC50)” value in experiment [1] was 10 fold; in experiment [2], 75 fold; in experiment [3], 2.1 fold. Further, in experiment [4], the “fold loss of susceptibility (IC50)” value is recorded as 250 fold. In experiment [5], the “susceptibility/resistance compared to reference virus” value was “resistant to delavirdine; also recorded: phenotypic resistance to delavirdine”. In addition, the results for the “susceptibility/resistance profile” value in experiment [6] and in experiment [7] were “increased resistance” and “reduced susceptibility”, respectively.

Values taken from US20020094522A1, “Means and methods for monitoring non-nucleoside reverse transcriptase inhibitor antiretroviral therapy and guiding therapeutic decisions in the treatment of HIV/AIDS” (priority 2000, published 2002).
